Where a name gives a salt, the structure may show the parent alone.
Assays:
A375 cells = assay: Assay 2: A375 (BRAF) GI50 cell-based assay (Cell Titer-Glo); details: Homo sapiens, A-375, 72 hours
Procedure: (§1) Alternatively, the following procedure can be used to measure cell-based activity. Test compounds were dissolved in DMSO in 10 mM stock. Cell Titer-Glo® 2.0 Luminescent cell viability assay reagent was purchased from Promega (Madison, WI). A375 and HCT116 cell lines were purchased from American Type Culture Collection (Manassas, VA). For A375 cells, cell culture media was DMEM+10% FBS. For HCT116 cells, cell culture media was McCoy's 5A+10% FBS. All media were supplemented with 100 μg/mL of penicillin, and 100 μg/mL of streptomycin. Cultures were maintained at 37° C. in a humidified atmosphere of 5% CO2 and 95% air.
(§2) Test compounds were diluted in DMSO solution with 10-dose and 3-fold dilutions in a source plate starting at 10 mM. 25 nL of each test compound was delivered from the source plate to each well of the 384-well cell culture plates (T=Final) by Echo 550. 25 μL of culture medium containing 2000 of A375 or HCT116 cells was added to each of the wells in duplicates of the cell culture plates (T=0 and T=Final). 25 μL of Cell Titer Glo 2.0 reagent was added to each well of cell culture plate (T=0). The contents were mixed on an orbital shaker for 2 min and incubated at room temperature for 15 min to stabilize luminescent signal. Luminescence was recorded by Envision 2104 Multilabel Reader (PerkinElmer, Santa Clara, CA). The number of viable cells in culture was determined based on quantitation of the ATP present in each culture well. The cells in cell culture plate (T=Final) were incubated with the compounds at 37° C., 5% CO2 for 72 hours. 25 μL of Cell Titer Glo 2.0 reagent was added to each well. The contents were mixed on an orbital shaker for 2 min and incubated at room temperature for 15 min to stabilize luminescent signal. Luminescence was recorded by Envision 2104 Multilabel Reader (PerkinElmer, Santa Clara, CA). The number of viable cells in culture was determined based on quantitation of the ATP present in each culture well. The GI50 curves were plotted using the GraphPad Prism 4 program based on a sigmoidal dose-response equation Y=Bottom+(Top-Bottom)/(1+10^((Log EC50−X)*HillSlope)). All parameters in the equation were calculated by GraphPad Prism 4 program. […] Accordingly, GI50 is the value of 10^X, where X was calculated by the Curve Fitting Equation when Y=50 using Excel.
Assay 2 is the A375 (BRAF) GI50 (nM) cell-based assay as described in Example 39. A2 indicates an IC50 of less than or equal to 1 μM, and B2 indicates an IC50 of greater than 1 μM and less than or equal to 2 μM.

HCT116 cells = assay: Assay 3: HCT116 (Kras) GI50 assay (Cell Titer-Glo); format: cell-based; details: Homo sapiens, HCT-116, 72 hours
Procedure: as §1, §2
Assay 3 is the HCT116 (Kras) GI50 (nM) assay as described in Example 39. A3 indicates an IC50 of less than or equal to 5 μM, and B3 indicates an IC50 of greater than 5 μM and less than or equal to 10 μM.

[1] = Assay 4: liver S9 half-life stability assay; format: in vitro ADME; details: liver S9 fraction, pH 7.4; human liver S9, 1 μM test compound, NADPH
Procedure: (§3) Compounds can be assessed for metabolic stability in human skin by assessing their rate of disappearance from human S9 skin fraction. Similarly, compounds can be assessed for metabolic stability in human liver by assessing their rate of disappearance from human S9 liver fraction. The protocol below is used to assess the difference between skin and hepatic metabolism.
(§4) The assay was carried out in 96-well microtiter plates at 37° C. Reaction mixtures (25 μL) contained a final concentration of 1 μM test compound, 2 mg/mL liver or skin protein, and 1 mM NADPH in buffer (100 mM potassium phosphate, pH 7.4 buffer with 1 mM EDTA, 3 mM MgCl2). At each of the time points (0, 15, 30, and 60 minutes), 150 μL, of quench solution (100% acetonitrile with 0.1% formic acid) with internal standard was transferred to each well. […]
(§5) All samples were analyzed on LC/MS/MS using an AB Sciex API 4000 instrument, coupled to a Shimadzu LC-20AD LC Pump system. […]
(§6) The extent of metabolism was calculated as the disappearance of the test compound, compared to the 0-min control reaction incubations. Initial rates were calculated for the compound concentration and used to determine tin values and subsequently, the intrinsic clearance, CLint=(0.693)(1/t1/2 (min)) (mL incubation/mg of S9 protein). […]

[2] = Assay 5: skin S9 half-life stability assay; format: in vitro ADME; details: skin S9 fraction, pH 7.4; human skin S9, 1 μM test compound, NADPH
Procedure: as §3, §4, §5, §6

[3] = Assay 6: liver microsomes half-life stability assay; format: in vitro ADME; details: pH 7.4; human liver microsomes, 1 μM test compound, NADPH
Procedure: Metabolic stability of testing compound can be evaluated using human liver microsomes to predict intrinsic clearance. Human liver microsomes are obtained from Corning Gentest.
The assay was carried out in 96-well microtiter plates at 37° C. Reaction mixtures (25 μL) contain a final concentration of 1 μM test compound, 0.5 mg/mL liver microsomes protein, and 1 mM NADPH in buffer (100 mM potassium phosphate, pH 7.4 buffer with 3 mM MgCl2). At each of the time points (0, 15, 30, and 60 minutes), 150 μL of quench solution (100% acetonitrile with 0.1% formic acid) with internal standard was transferred to each well. Verapamil was included as a positive control to verify assay performance. Plates were sealed and centrifuged at 4° C. for 15 minutes at 4000 rpm. The supernatant was transferred to fresh plates for LC/MS/MS analysis.
as §5
as §6, with “time incubation.” for “control reaction incubations.”, “t1/2” for “tin”, “(min))(g of liver/kg of body weight)(mL” for “(min)) (mL”, “microsomal protein)(45 mg of microsomal protein/g of liver weight).” for “S9 protein).”

MEK1 = MEK1 (Homo sapiens (Human), UniProt Q02750); assay: MEK Inhibition Assay-2 (Z'-LYTE biochemical assay); details: Z'-LYTE assay of Example 37; read-out: IC50 against MEK1
Procedure: MEK1 inhibitory activity of compounds were tested using the following procedure (protocol available at thermofisher.com/content/dam/LifeTech/migration/files/drug-discovery/pdfs.par.60256.file.dat/20130430%20ssbk %20customer %20protocol %20 and %20assa y %20conditions.pdf). The Z′-LYTE biochemical assay (ThermoFisher) employs a fluorescence-based, coupled-enzyme format and is based on the differential sensitivity of phosphorylated and non-phosphorylated peptides to proteolytic cleavage.
Test compounds in 100% DMSO were screened in 1% DMSO (final) in the well. For 10 point titrations, 3-fold serial dilutions are conducted from the starting concentration of 30 μM.
After the 1 hour incubation, 5 μL of a 1:1024 dilution of Development Reagent A (available from Invitrogen, catalog no. PV3295) was added.
ATP solutions were diluted to a 4× working concentration in Kinase Buffer (50 mM HEPES pH 7.5, 0.01% BRIJ-35, 10 mM MgCl2, 1 mM EGTA). ATP Km apparent was previously determined using a Z′-LYTE assay. The Development Reagent was diluted in Development Buffer (available from Invitrogen, catalog no. P3127).
Assay Protocol: 2.5 μL of 4× test compound or 100 nL of 100× Test Compound plus 2.4 μL Kinase Buffer, 5 μL of the 2× Peptide/Kinase Mixture, 2.5 μL of 4×ATP Solution were added to the plates and placed on a shake plate for 30-seconds. The kinase reaction was allowed to proceed for 60-minute at room temperature, before 5 μL of Development Reagent Solution was added, and the mixture agitated for 30-seconds on a shake plate. The mixture was incubated for 60-minute at room temperature. Fluorescence was measured using a plate reader and the data were analyzed.
This control yielded 100% cleaved peptide in the Development Reaction. The 100% Phosphorylation Control, which consisted of a synthetically phosphorylated peptide of the same sequence as the peptide substrate, was designed to allow for the calculation of percent phosphorylation. This control yielded a very low percentage of cleaved peptide in the Development Reaction. The 0% Phosphorylation and 100% Phosphorylation Controls allow for the calculation of the percent phosphorylation achieved in a specific reaction well.
The minimum emission ratio in a screen was established by the 0% Inhibition Control, which contained active kinase. This control was designed to produce a 10-50% phosphorylated peptide in the Kinase Reaction. Cascade assays may produce up to 70% phosphorylated peptide.
A known inhibitor control standard curve, 10 point titration, was run for each individual kinase on the same plate as the kinase to ensure the kinase was inhibited within an expected IC50 range previously determined.
The following controls are prepared for each concentration of Test Compound assayed. […] The expected value for a non-interfering compound should be 100%. Any value outside of 90% to 110% was flagged. […] The expected value for a non-fluorescence compound should be 0%. Any value>20% was flagged.
The data in Table A was calculated. XLfit from IDBS was used. The dose response curve was curve fit to model number 205 (sigmoidal dose-response model).
Table 3 lists the MEK1 inhibition assay results of selected compounds according to the above procedure.

Chain of MEK1 (Q02750 whole entry): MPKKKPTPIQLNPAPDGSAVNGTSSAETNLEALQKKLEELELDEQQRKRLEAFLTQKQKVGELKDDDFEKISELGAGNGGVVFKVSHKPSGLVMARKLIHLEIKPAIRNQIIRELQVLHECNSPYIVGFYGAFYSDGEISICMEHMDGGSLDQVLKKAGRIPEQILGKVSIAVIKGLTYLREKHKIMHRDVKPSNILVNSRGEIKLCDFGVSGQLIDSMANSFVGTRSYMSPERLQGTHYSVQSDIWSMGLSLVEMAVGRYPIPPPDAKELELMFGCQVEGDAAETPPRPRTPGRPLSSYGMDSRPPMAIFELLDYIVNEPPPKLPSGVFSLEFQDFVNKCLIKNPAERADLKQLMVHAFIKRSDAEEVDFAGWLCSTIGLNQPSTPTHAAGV

GI50 (A375 cells)	GI50 (HCT116 cells)	IC50 (MEK1)	also measured	Compound
≤ 1000 nM	≤ 5000 nM	–	half-life at 1 μM [1]: ≤ 50 min; half-life at 1 μM [2]: ≥ 400 min; half-life at 1 μM [3]: ≤ 50 min	CC(=O)c1sc(Nc2ccc(I)cc2F)c(C(=O)NOCCO)c1C [Compound 1.013, 5-Acetyl-2-((2-fluoro-4-iodophenyl)amino)-N-(2-hydroxyethoxy)-4-methylthiophene-3-carboxamide]
1000 to 2000 nM	≤ 5000 nM	–	–	CC(=O)c1sc(Nc2ccc(I)cc2F)c(C(=O)N[C@@H]2CCCNC2)c1C [Compound 1.016, (R)-5-acetyl-2-((2-fluoro-4-iodophenyl)amino)-4-methyl-N-(piperidin-3-yl)thiophene-3-carboxamide]
1000 to 2000 nM	≤ 5000 nM	–	–	CC(=O)c1sc(Nc2ccc(I)cc2F)c(C(=O)N[C@@H]2CCNC2)c1C [Compound 1.017, (R)-5-acetyl-2-((2-fluoro-4-iodophenyl)amino)-4-methyl-N-(pyrrolidin-3-yl)thiophene-3-carboxamide]
≤ 1000 nM	5000 to 10000 nM	–	–	CC(=O)c1sc(Nc2ccc(I)cc2F)c(C(=O)NCC(C)(C)N)c1C [Compound 1.020]
≤ 1000 nM	5000 to 10000 nM	–	–	CC(=O)c1sc(Nc2ccc(I)cc2F)c(C(=O)NOCC2CC2)c1C [Compound 1.023]
–	–	≤ 150 nM	–	O=C1CCCc2c1sc(Nc1ccc(I)cc1F)c2C(=O)NOC[C@H](O)CO [Compound 1.030, (R)—N-(2,3-Dihydroxypropoxy)-2-((2-fluoro-4-iodophenyl)amino)-7-oxo-4,5,6,7-tetrahydrobenzo[b]thiophene-3-carboxamide]
≤ 1000 nM	≤ 5000 nM	≤ 150 nM	–	O=C1CCCc2c1sc(Nc1ccc(I)cc1F)c2C(=O)NOCC1CC1 [Compound 1.032, N-(Cyclopropylmethoxy)-2-((2-fluoro-4-iodophenyl)amino)-7-oxo-4,5,6,7-tetrahydrobenzo[b]thiophene-3-carboxamide]
–	–	≤ 150 nM	–	NCCONC(=O)c1c(Nc2ccc(I)cc2F)sc2c1CCCC2=O [Compound 1.033, N-(2-Aminoethoxy)-2-(2-fluoro-4-iodophenylamino)-7-oxo-4,5,6,7-tetrahydrobenzo[b]thiophene-3-carboxamide hydrochloride]
–	–	≤ 150 nM	–	O=C1CCCc2c1sc(Nc1ccc(I)cc1F)c2C(=O)NC[C@H](O)CO [Compound 1.034, (S)—N-(2,3-dihydroxypropyl)-2-((2-fluoro-4-iodophenyl)amino)-7-oxo-4,5,6,7-tetrahydrobenzo[b]thiophene-3-carboxamide]
–	–	≤ 150 nM	–	O=C1CCCc2c1sc(Nc1ccc(I)cc1F)c2C(=O)NC[C@@H](O)CO [Compound 1.035, (R)—N-(2,3-dihydroxypropyl)-2-((2-fluoro-4-iodophenyl)amino)-7-oxo-4,5,6,7-tetrahydrobenzo[b]thiophene-3-carboxamide]

From patent publication US12466818B2, “Thienyl-aniline compounds for treatment of dermal disorders” (NFlection Therapeutics, Inc., priority 2018, dated 2025)
